Values quoted from earlier work in US20250107560A1, “CHRONOBIOLOGICAL FOOD FOR INFANTS AND METHOD FOR PRODUCING SAME” (priority 2022, published 2025).

Experiments:
carrier albumin = carrier albumin (Homo sapiens, UniProt P02768); conditions: compared with D-tryptophan
[1] = unlike D-tryptophan

carrier albumin, sequence (P02768 25-609): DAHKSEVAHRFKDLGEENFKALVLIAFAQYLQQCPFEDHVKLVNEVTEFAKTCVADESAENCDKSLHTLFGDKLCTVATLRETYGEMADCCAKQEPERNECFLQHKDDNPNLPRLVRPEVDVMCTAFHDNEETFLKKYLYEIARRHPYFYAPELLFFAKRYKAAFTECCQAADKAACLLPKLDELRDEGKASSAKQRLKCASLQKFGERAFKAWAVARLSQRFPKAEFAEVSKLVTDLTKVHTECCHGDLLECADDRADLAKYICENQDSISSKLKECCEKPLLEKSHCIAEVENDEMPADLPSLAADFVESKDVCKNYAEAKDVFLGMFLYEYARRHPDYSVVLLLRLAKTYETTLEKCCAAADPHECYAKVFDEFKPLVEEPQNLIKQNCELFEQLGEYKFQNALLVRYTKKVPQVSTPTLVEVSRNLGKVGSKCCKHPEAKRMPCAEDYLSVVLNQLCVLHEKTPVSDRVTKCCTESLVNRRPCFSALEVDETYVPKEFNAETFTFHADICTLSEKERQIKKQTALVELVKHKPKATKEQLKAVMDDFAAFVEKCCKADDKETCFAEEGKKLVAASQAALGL

N[C@@H](Cc1c[nH]c2ccccc12)C(=O)O [L-tryptophan]
binding to the carrier albumin, relative to D-tryptophan (carrier albumin): 100 times
toxicity [1]: non-toxic

COc1ccc2[nH]cc(CCNC(C)=O)c2c1 [Melatonin, melatonin]
biological half-life (in vivo): 30-45 minutes
excreted in the urine as 6-sulfatoxymelatonin (metabolized in the liver): approx. 95%
